Measurements published in patent US5739291A, “Glutamate receptor antibodies” (The Salk Institute For Biological Studies, priority 1995, dated 1998).
Like-named read-outs stand apart in the source and are kept apart here.

Assays:
GluR1 = molecular target: T1, GluR1 (Rattus norvegicus, UniProt P19490); assay: Voltage-clamp recording in Xenopus oocytes injected with GluR1 in vitro RNA; assay type: cell-based; details: for agonist properties (in words) / inhibition of kainate-evoked depolarizations (in words): each at 1 mM
T1 construct: expressed in transfected cells; host or cells: Xenopus oocytes injected with GluR1 in vitro sense RNA
Text: Either a λZAP cDNA preparation, or a plasmid containing the cDNA to be tested, are cut downstream from the cDNA insert with a restriction enzyme. The post-restriction digest is digested with Proteinase K and then extracted with two phenol: chloroform (1:1) extractions. The resulting DNA fragments are then ethanol precipitated. The precipitated fragments are mixed with either T3 RNA polymerase (to make sense strand), or T7 RNA polymerase (to make anti-sense strand), plus rATP, rCTP, rGTP, rUTP, and RNase inhibitor. Simultaneously, the RNA transcripts are capped with a sodium diguanosine triphosphate [G(5')ppp(5')G] cap. The water used for the above procedures is treated with diethylpyrocarbonate to inactivate RNases.
The in vitro synthesized mRNA transcripts are injected into Xenopus oocytes. 50 nl of an RNA solution, 0.2-0.6 mg/ml, is injected into the stage V oocytes. The injected oocytes are incubated at 16° C. in Barth's medium for 2-7 days before they are analyzed for the presence of functional receptors.
Voltage recordings are made by penetrating the oocyte with a micro-electrode filled with 3M KCl and connected to the bridge circuit of an appropriate voltage clamp unit, e.g., the Dagan 8500 voltage clamp unit. Voltage recordings are preferably obtained with two electrodes, a voltage electrode filled with 3M KCl and a current electrode filled with 0.25M CsCl, 0.25M CsF and 50 mM EGTA (ethylene glycol tetraacetic acid).
Oocytes employed herein are obtained from ovarian tissue from anesthetized adult female Xenopus. The ovarian tissue is treated with collagenase, 2 mg/ml, for two hours and then the ovarian epithelium and follicular cells are dissected away.
The plasmid pGluR1 was subsequently rescued from bacteriophage λZAPII-GluR1.
3 days prior to the recording. The oocytes were voltageclamped at -70 mV,
applied by rapid superfusion, with 5 minute intervals between drugs. Peak
currents were recorded; each number represents the average of 3 recording
from 3 different oocytes, ± SEM.
(§1) The data in FIG. 3B represent the responses of oocytes to the indicated agonists measured 3 days after injection with GluR1 (2 ng) or GluR3 (2 ng) RNA or adult rat brain hippocampus poly(A)^+ RNA (~50 ng). All values are normalized to the response obtained with […] and are presented as the mean ± S.E.M. with n≥3 for all measurements.

homomeric GluR6 receptor = molecular target: T2, homomeric GluR6 receptor (Rattus norvegicus, UniProt P42260, I567V/Q621R/Y571C); assay: Homomeric GluR6 ion channel in Xenopus oocytes injected with in vitro transcribed RNA; assay type: cell-based; details: for responsiveness of homomeric ion channels: summary statement; for current at -70 mV: 10 μM kainate
T2 construct: A 4559 base pair cDNA encoding a protein of 884 amino acid residues was engineered from RC11 and RC27; expressed in transfected cells; host or cells: Xenopus oocytes injected with in vitro transcribed GluR6 RNA

GluR5-1 = GluR5-1 (Rattus norvegicus, UniProt P22756); assay type: cell-based
Text: (§2) In vitro synthesized GluR5-1 and GluR5-2 cRNAs were individually expressed in Xenopus oocytes.

GluR5-2 = GluR5-2 (Rattus norvegicus, UniProt P22756); assay type: cell-based
Text: as §2

kainate receptor = assay type: cell-based, rat
Experimental: A directional cDNA library (λZAPII RTB1; complexity: 8×10^5 elements), consisting of 18 independent sublibraries of 44,000 clones each, was constructed from this poly(A)^+ RNA using the bacteriophage expression vector λZAPII. A pool of in vitro transcripts, comprised of transcripts made separately from all 18 amplified sublibraries, was injected into oocytes. […] Subsequently, pools of 44,000 clones (=the single sublibraries), 4,000, 400 and 40 clones were tested.

[1] = molecular target: kainate receptors derived from forebrain mRNA; details: read-out: Ki for block of kainate responses; literature value (Verdoorn et al.); cited from earlier work
GluR3 = GluR3 (Rattus norvegicus, UniProt P19492); assay type: cell-based
Experimental: Thus, oocytes were injected with in vitro synthesized RNA transcripts derived from individual cDNA clones.
as §1

[2] = system: glutamate receptor subtypes; assay type: cell-based, rat; details: 2-10 days after injection
[3] = oocytes held at -100 mV, before Con A, AMPA 100 μM
[4] = QUIS 10 μM, AMPA 50 μM, GLU 100 μM, NMDA 30 μM plus 10 μM glycine, APB 50 μM, -70 mV, 2 ng RNA, 3 days

T2 sequence (P42260 with tags, fused parts or gaps I567V/Y571C/Q621R): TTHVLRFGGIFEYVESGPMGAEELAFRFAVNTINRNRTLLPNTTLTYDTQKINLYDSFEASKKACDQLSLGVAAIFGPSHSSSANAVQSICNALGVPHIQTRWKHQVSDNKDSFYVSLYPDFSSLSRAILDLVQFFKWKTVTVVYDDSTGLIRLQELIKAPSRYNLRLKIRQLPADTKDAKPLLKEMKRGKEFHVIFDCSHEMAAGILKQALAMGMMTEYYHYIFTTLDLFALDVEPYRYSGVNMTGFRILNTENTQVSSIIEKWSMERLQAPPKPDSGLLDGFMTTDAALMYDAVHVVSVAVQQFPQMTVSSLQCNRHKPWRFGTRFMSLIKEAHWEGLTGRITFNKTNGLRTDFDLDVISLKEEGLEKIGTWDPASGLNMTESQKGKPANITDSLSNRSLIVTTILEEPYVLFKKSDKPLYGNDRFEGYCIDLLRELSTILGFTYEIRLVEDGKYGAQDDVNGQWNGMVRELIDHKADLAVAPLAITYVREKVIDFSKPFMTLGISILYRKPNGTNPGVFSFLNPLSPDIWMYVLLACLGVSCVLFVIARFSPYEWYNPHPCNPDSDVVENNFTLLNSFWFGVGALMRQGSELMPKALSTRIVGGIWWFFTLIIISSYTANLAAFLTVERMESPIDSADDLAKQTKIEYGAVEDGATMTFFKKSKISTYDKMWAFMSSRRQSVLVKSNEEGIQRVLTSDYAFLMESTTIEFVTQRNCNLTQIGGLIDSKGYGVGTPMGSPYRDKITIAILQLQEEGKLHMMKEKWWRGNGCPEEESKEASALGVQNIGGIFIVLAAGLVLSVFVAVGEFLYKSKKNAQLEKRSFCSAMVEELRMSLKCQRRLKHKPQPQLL
Sequence of GluR5-2 (P22756 31-949): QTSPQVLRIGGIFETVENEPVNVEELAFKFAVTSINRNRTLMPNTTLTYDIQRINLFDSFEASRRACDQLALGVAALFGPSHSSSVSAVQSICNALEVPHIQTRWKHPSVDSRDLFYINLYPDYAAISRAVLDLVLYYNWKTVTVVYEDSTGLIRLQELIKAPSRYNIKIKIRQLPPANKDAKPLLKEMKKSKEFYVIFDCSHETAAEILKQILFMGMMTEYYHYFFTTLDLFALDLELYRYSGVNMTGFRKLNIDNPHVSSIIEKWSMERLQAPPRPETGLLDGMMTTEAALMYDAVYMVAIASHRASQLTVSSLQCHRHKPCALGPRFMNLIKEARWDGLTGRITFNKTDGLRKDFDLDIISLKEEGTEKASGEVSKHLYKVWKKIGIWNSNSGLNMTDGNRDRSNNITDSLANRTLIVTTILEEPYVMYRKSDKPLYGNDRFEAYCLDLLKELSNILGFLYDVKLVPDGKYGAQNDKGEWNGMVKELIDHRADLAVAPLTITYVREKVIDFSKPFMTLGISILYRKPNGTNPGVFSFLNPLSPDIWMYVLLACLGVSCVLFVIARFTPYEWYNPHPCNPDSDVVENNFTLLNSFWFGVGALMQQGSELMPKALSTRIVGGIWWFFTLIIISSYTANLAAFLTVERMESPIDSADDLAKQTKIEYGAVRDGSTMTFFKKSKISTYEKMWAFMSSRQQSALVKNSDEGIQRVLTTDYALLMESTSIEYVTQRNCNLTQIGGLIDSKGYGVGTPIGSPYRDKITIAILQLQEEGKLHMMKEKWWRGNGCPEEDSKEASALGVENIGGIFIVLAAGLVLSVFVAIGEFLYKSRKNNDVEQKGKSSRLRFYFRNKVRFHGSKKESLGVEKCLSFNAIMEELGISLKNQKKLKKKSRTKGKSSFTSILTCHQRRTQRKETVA
T1 sequence (P19490 19-907 S67T/A248R/S789T): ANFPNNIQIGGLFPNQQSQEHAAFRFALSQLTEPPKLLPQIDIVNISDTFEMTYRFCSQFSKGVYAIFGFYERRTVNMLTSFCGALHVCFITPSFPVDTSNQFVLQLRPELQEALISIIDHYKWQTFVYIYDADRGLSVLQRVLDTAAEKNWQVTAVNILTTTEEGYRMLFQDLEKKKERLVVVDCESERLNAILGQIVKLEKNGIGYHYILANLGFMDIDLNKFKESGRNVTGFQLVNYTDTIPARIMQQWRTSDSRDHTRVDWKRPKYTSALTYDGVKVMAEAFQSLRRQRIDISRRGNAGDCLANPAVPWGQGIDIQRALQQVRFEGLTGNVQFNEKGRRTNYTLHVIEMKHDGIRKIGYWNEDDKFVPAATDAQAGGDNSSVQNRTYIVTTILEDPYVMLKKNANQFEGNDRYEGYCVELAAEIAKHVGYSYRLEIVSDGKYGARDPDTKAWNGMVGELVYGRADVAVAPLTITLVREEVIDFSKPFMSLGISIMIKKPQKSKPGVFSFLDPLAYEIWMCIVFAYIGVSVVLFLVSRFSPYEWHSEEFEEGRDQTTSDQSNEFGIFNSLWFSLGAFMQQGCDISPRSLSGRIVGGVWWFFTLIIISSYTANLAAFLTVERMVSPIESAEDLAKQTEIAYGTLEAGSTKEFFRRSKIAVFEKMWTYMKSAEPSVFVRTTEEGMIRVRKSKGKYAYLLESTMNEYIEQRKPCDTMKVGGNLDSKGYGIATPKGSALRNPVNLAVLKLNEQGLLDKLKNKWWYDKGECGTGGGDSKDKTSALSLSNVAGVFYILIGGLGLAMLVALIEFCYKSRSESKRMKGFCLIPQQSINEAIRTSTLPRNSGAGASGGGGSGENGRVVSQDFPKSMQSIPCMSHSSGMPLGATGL
Sequence of GluR5-1 (P22756 with tags, fused parts or gaps K282L/C354W/A355R/A477G/DEL870-898): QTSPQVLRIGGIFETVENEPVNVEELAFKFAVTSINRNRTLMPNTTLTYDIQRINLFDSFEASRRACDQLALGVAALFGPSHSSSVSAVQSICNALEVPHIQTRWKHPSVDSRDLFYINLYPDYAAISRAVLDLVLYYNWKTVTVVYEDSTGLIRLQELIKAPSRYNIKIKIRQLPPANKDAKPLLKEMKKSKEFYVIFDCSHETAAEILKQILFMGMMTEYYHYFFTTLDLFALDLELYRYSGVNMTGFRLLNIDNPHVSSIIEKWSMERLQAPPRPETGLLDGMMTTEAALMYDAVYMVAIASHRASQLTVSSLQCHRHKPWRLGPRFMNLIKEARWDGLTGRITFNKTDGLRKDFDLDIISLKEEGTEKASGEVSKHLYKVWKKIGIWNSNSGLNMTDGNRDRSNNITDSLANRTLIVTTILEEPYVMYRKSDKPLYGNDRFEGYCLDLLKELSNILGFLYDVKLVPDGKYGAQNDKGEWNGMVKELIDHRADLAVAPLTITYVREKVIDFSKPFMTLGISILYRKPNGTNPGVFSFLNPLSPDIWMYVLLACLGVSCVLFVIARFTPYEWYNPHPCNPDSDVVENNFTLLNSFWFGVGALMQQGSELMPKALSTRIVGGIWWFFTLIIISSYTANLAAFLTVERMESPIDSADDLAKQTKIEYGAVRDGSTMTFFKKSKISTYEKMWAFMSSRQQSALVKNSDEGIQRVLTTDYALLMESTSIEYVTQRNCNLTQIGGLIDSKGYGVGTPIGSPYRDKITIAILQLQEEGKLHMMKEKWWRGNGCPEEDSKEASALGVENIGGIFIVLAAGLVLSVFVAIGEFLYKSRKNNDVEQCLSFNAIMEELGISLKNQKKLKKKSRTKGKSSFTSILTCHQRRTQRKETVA
Sequence of GluR3 (P19492 23-888): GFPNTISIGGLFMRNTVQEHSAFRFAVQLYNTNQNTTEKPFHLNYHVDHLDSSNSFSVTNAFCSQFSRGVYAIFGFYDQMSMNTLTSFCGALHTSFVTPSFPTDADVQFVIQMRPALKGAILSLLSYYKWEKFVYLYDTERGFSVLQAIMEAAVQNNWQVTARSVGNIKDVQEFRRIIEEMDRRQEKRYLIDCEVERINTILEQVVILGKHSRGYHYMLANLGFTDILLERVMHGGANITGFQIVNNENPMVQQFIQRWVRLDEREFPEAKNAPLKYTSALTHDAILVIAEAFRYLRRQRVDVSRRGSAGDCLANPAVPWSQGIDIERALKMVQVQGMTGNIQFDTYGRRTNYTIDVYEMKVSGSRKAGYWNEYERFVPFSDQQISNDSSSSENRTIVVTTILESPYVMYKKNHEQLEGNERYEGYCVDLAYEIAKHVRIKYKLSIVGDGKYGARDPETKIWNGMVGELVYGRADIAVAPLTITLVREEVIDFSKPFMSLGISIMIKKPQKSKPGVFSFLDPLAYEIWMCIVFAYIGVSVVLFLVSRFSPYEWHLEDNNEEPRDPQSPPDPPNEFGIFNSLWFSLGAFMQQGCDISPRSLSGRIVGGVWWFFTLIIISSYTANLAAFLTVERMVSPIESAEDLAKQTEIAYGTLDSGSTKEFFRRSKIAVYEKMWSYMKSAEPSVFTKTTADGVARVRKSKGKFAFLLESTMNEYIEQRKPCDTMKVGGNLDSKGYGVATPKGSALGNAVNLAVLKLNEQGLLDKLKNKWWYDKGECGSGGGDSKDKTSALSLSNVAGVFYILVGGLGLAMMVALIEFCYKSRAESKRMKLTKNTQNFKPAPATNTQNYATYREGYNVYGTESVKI

CN1CCCC1c1cccnc1 (centres unmarked) [nicotine]
responses evoked by unrelated neurotransmitter receptor agonists (GluR1): failed to evoke responses

Cc1onc(O)c1CC(N)C(=O)O (stereo not drawn) [AMPA, α-amino-3-hydroxy-5-methyl-isoxazole-4-propionic acid]
effect on kainate-evoked current (homomeric GluR6 receptor): nor did it antagonize a kainate-evoked current | response of Con A treated oocytes (homomeric GluR6 receptor): did not respond | effect of coapplication on kainate-evoked (1 μM) responses (homomeric GluR6 receptor; AMPA 100 μM, Con A treated oocytes): had no effect | inward current evoked (homomeric GluR6 receptor; [3]): did not evoke any detectable current | responsiveness of homomeric ion channels (homomeric GluR6 receptor): but not to AMPA

N[C@@H](Cn1oc(=O)[nH]c1=O)C(=O)O [quisqualate, quisqualic acid]
membrane depolarizations elicited (GluR5-1): did not elicit membrane depolarizations | membrane depolarizations elicited (GluR5-2): did not elicit membrane depolarizations | effect on kainate-evoked current (homomeric GluR6 receptor): attenuated a subsequent kainate evoked current | inward current evoked (homomeric GluR6 receptor): activated only small inward currents

O=C(O)C1CN(CCCP(=O)(O)O)CCN1 (centres unmarked) [CPP]
agonist properties (in words) (GluR1): did not show any agonist properties | inhibition of kainate-evoked depolarizations (in words) (GluR1): slightly inhibited the KA responses | Compound Alone (%): % of the response evoked by 30 μM kainate immediately before drug application (GluR1; xenopus oocytes, 1000 µM): 9.1 ± 0.7% | Compound Plus Kainate (%): % of the response seen with 30 μM kainate alone (GluR1; xenopus oocytes, 1000 µM): 78.8 ± 0.9%

C/C(=C/C=C/[C@@H](C)C(=O)O)[C@H]1CN[C@H](C(=O)O)[C@H]1CC(=O)O [domoate, domoic acid]
response compared with kainate (kainate receptor; 10 μM domoate vs 100 μM kainate): response similar to the one elicited by 100 μM kainate

NC(CCCP(=O)(O)O)C(=O)O (centres unmarked) [APV, 2amino-5-phospho-novaleric acid]
agonist properties (in words) (GluR1): did not show any agonist properties | inhibition of kainate-evoked depolarizations (in words) (GluR1): slightly inhibited the KA responses | Compound Plus Kainate (%): % of the response seen with 30 μM kainate alone (GluR1; test compounds 1 mM plus 30 μM kainate, -70 mV, peak currents, average of 3 oocytes ± SEM): 73.7 ± 3.2% | Compound Alone (%): % of the response evoked by 30 μM kainate immediately before drug application (GluR1; test compounds 1 mM, kainate 30 μM, -70 mV, peak currents, average of 3 oocytes ± SEM): 3.1 ± 1.4%

O=C(O)c1cc(=O)c2ccccc2[nH]1 [Kynurenic acid]
inhibition of kainate-evoked depolarizations (in words) (GluR1): most potent inhibitor | Compound Alone (%): % of the response evoked by 30 μM kainate immediately before drug application (GluR1; xenopus oocytes, 1000 µM): 3.4 ± 0.2% | Compound Plus Kainate (%): % of the response seen with 30 μM kainate alone (GluR1; xenopus oocytes, 1000 µM): 9.6 ± 1.3%

N#Cc1cc2[nH]c(=O)c(=O)[nH]c2cc1[N+](=O)[O-] [CNQX, 6-nitro-7-cyano-quinoxaline-2,3-dione]
block of agonist-evoked responses (homomeric GluR6 receptor): blocked both quisqualate and kainate-evoked responses | Ki [1]: 295 nM

CN[C@H](CC(=O)O)C(=O)O [NMDA, N-methyl-D-aspartic acid]
response to agonist (GluR1): No detectable responses | responses evoked by other glutamate receptor agonists (GluR1): evoked no responses | agonist properties (in words) (GluR1): did not show any agonist properties | inhibition of kainate-evoked depolarizations (in words) (GluR1): slightly inhibited the KA responses | response to agonist (GluR3): No detectable responses | membrane depolarizations elicited (GluR5-1): did not elicit membrane depolarizations | membrane depolarizations elicited (GluR5-2): did not elicit membrane depolarizations | response of Con A treated oocytes (homomeric GluR6 receptor): did not respond | response to selective agonists [2]: elicited smooth responses with fast onsets | responses detected (kainate receptor): No responses

N[C@H](CCC(=O)NCC(=O)O)C(=O)O [γ-DGG, D-glutamylglycine]
inhibition of kainate-evoked depolarizations (in words) (GluR1): inhibited kainate responses | Compound Alone (%): % of the response evoked by 30 μM kainate immediately before drug application (GluR1; xenopus oocytes, 1000 µM): -0.1 ± 0.5% | Compound Plus Kainate (%): % of the response seen with 30 μM kainate alone (GluR1; xenopus oocytes, 1000 µM): 30.8 ± 1.1%

NCCCC(=O)O [γ-aminobutyric acid]
responses evoked by unrelated neurotransmitter receptor agonists (GluR1; concentrations as high as 1 mM): failed to evoke responses

NCC(=O)O [glycine]
potentiation of the KA response (GluR1): did not potentiate the KA response | responses evoked by unrelated neurotransmitter receptor agonists (GluR1): failed to evoke responses

CCOC(=O)CC[C@H](N)C(=O)OCC [GDEE, glutamate diethylester]
agonist properties (in words) (GluR1): displayed weak agonist properties | inhibition of kainate-evoked depolarizations (in words) (GluR1): did not block the response significantly | Compound Alone (%): % of the response evoked by 30 μM kainate immediately before drug application (GluR1; xenopus oocytes, 1000 µM): 24.8 ± 5.7% | Compound Plus Kainate (%): % of the response seen with 30 μM kainate alone (GluR1; xenopus oocytes, 1000 µM): 97.8 ± 6.6%

NCCc1c[nH]c2ccc(O)cc12 [serotonin]
responses evoked by unrelated neurotransmitter receptor agonists (GluR1; concentrations as high as 1 mM): failed to evoke responses

O=C(O)[C@H]1CCCN[C@H]1C(=O)O (relative stereo) [PDA, 2,3cis-piperidine dicarboxylic acid]
inhibition of kainate-evoked depolarizations (in words) (GluR1): blocked the GluR1 response | Compound Alone (%): % of the response evoked by 30 μM kainate immediately before drug application (GluR1; xenopus oocytes, 1000 µM): 2.5 ± 0.7% | Compound Plus Kainate (%): % of the response seen with 30 μM kainate alone (GluR1; xenopus oocytes, 1000 µM): 31.3 ± 2.0%

CS(=O)(=O)O [methanesulfonate, sodium methanesulfonate]
reduction of kainate-evoked current (homomeric GluR6 receptor; 95% of Cl- substituted by methanesulfonate): 8 fold

NC(CCP(=O)(O)O)C(=O)O (centres unmarked) [APB, 2-amino-4-phosphonobutyric acid]
response to agonist (GluR1; [4]): No detectable responses | response to agonist (GluR3; [4]): No detectable responses | membrane depolarizations elicited (GluR5-1; AMPA 50 μM, quisqualate 10 μM, APB 100 μM, NMDA 100 μM with 10 μM glycine): did not elicit membrane depolarizations | membrane depolarizations elicited (GluR5-2; KA 100 MM, AMPA 50 μM, quisqualate 10 μM, APB 100 μM, NMDA 100 μM with 10 μM glycine): did not elicit membrane depolarizations | response to selective agonists [2]: gave no response

C=C(C)[C@H]1CN[C@H](C(=O)O)[C@H]1CC(=O)O [kainate, kainic acid]
desensitization of responses (GluR1; prolonged (up to 10 minutes) superfusion, 100 μM agonist): did not desensitize | current at -70 mV (homomeric GluR6 receptor; Con A treated, modified Ringer solution (sodium methanesulfonate)): 330 nA | current at -70 mV (homomeric GluR6 receptor; Ringer solution, after Con A treatment): 2.3 μa | current at -70 mV (homomeric GluR6 receptor; Ringer solution, before Con A treatment): 30 nA | response of Con A treated oocytes (homomeric GluR6 receptor; 100 μM aspartate, 100 μM NMDA with 3 μM glycine, 10-1000 μM AMPA): responded | time to full recovery from desensitization (homomeric GluR6 receptor; 100 μM kainate for 30 seconds): approximately 15 minutes | inward current evoked (homomeric GluR6 receptor; [3]): evoked inward currents that desensitized | responsiveness of homomeric ion channels (homomeric GluR6 receptor): responsive to KA
